In publication PMC8494430, “Development of a fluorogenic ADAMTS-7 substrate” (Journal of Enzyme Inhibition and Medicinal Chemistry, 2021):

Target: T1, ADAMTS-5 (Homo sapiens, UniProt Q9UNA0)
T1 construct: made in house
T1 sequence (Q9UNA0 262-930): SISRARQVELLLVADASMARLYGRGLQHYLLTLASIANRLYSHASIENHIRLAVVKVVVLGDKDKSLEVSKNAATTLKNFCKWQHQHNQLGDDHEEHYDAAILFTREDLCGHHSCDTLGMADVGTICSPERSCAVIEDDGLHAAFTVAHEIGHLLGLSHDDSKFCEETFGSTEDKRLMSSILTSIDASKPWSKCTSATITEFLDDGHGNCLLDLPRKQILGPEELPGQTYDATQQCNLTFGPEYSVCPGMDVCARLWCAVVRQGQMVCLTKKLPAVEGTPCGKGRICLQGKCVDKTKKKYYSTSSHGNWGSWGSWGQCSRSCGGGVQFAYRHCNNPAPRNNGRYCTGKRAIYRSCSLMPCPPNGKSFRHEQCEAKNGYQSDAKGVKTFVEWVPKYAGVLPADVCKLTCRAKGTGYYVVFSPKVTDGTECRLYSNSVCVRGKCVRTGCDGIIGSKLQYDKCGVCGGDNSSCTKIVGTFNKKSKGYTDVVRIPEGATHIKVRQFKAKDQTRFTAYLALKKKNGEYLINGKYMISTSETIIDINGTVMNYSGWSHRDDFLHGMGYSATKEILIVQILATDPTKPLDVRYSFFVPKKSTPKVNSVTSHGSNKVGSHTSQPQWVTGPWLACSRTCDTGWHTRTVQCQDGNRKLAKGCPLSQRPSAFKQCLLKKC
Assay: Cleavage of ATS7FP7 by ADAMTS-5 (kinetic constants)
Format: biochemical
Details: cleavage of ATS7FP7 by ADAMTS-5 (10 nM), 37 °C; curve did not reach a proper plateau
Method: All enzyme assays were conducted in TNC-B buffer (50 mM Tris- HCl, pH 7.5, 150 mM NaCl, 10 mM CaCl2, and 0.02% NaN3) at 37 °C in 384 well plates (Cat. No: 784900, Greiner Bio-One, Austria). To avoid the formation of inhibitor or peptide aggregates, the detergent Brij-35 (0.05%) was added to TNC-B[13]. For inhibition studies, stock solutions of chemical compounds were prepared in dimethyl sulfoxide (DMSO) (10 mM). These were further diluted at different concentrations in TNC-B and incubated with ADAMTS-1, ADAMTS-4, ADAMTS-5, ADAMTS-7 or ADAMTS-8 (10 nM) for 1 h at 37 °C. Blank samples were prepared using buffer only and the rate of cleavage for blank reactions was subtracted from the rates measured in the presence of enzyme. Upon addition of the indicated ADAMTS-7 FRET substrates (40 µM), the fluorescence was measured immediately using a FLUOstar Omega microplate reader (BMG Labtech, Germany) with an excitation filter wavelength of 485 nm and an emission filter wavelength of 520 nm. […]
Supplementary Figure 6: Cleavage of ATS7FP7 by members of the ADAMTS family. […] Fluorescence was detected (λex = 485 nm, λem = 520 nm) for 8 h at 37°C and reported as relative fluorescence units (RFU). […]

Glu-Ala-Ala-Ala-Arg↓Ala-Glu↓Ala-Ala-Ala-Lys [ATS7FP7]
Km: 81 ± 24 µM
kcat: 0.225 ± 0.042 s⁻¹
